Patent publication US8865182B2 (priority 2009, dated 2014)

What follows are sequences tested on HLA-A24 supertype (A*2301, A*2402, A*2902, A*3002).
Format: binding, human
In the case of “LYNKMEFEPF (Influenza Virus) [SEQ ID NO: 297]”, the “# Alleles Bound” value is reported as 2.
In the case of MFLAMITYI [SEQ ID NO: 245], the “# Alleles Bound” value is reported as 2.
In the case of “MYQKCCNLF (Influenza Virus) [SEQ ID NO: 250]”, the “# Alleles Bound” value is reported as 2.
“MYQKCCTLF (Influenza Virus) [SEQ ID NO: 251]” was tested, and the “# Alleles Bound” value was 3.
“RYTKTTYWW (Influenza Virus) [SEQ ID NO: 246]” was tested, and the “# Alleles Bound” value was 2.
In the case of “SWPDGANINF (Influenza Virus) [SEQ ID NO: 101]”, the “# Alleles Bound” value is reported as 2.
With “SWPDGANIPF (Influenza Virus) [SEQ ID NO: 100]” the “# Alleles Bound” value was 2.
SYINRTGTF [SEQ ID NO: 247] was tested, and the “# Alleles Bound” value was 3.
SYLIRALTL [SEQ ID NO: 244] was tested, and the “# Alleles Bound” value was 2.
“VFVIREPFI (Influenza Virus) [SEQ ID NO: 97]” was tested, and the “# Alleles Bound” value was 2.
For WMACHSAAF [SEQ ID NO: 131], the “# Alleles Bound” value was 2.
For WMMAMKYPI [SEQ ID NO: 295], the “# Alleles Bound” value was 2.
In the case of “WWTSNSIIVF (Influenza Virus) [SEQ ID NO: 99]”, the “# Alleles Bound” value is reported as 2.

These sequences were tested on HLA-B7 supertype (B*0702, B*3501, B*5101, B*5301, B*5401).
Format: binding, human
“APFSKDNSI (Influenza Virus) [SEQ ID NO: 102]” was tested, and the “# Alleles Bound” value was 1.
For “APPEQSRMQF (Influenza Virus) [SEQ ID NO: 305]”, the “# Alleles Bound” value was 1.
“APPKQSRMQF (Influenza Virus) [SEQ ID NO: 304]” was tested, and the “# Alleles Bound” value was 1.
In the case of “APSPYNSRF (Influenza Virus) [SEQ ID NO: 103]”, the “# Alleles Bound” value is reported as 2.
In the case of “FPNEVGARIL (Influenza Virus) [SEQ ID NO: 302]”, the “# Alleles Bound” value is reported as 5.
“FPSSSYRRPV (Influenza Virus) [SEQ ID NO: 260]” was tested, and the “# Alleles Bound” value was 4.
“GPALSINEL (Influenza Virus) [SEQ ID NO: 306]” was tested, and the “# Alleles Bound” value was 1.
“GPATAQMAL (Influenza Virus) [SEQ ID NO: 257]” was tested, and the “# Alleles Bound” value was 2.
“GPVHFRNQV (Influenza Virus) [SEQ ID NO: 301]” was tested, and the “# Alleles Bound” value was 1.
“IPAEMLASI (Influenza Virus) [SEQ ID NO: 255]” was tested, and the “# Alleles Bound” value was 4.
In the case of IPKRNRSIL [SEQ ID NO: 259], the “# Alleles Bound” value is reported as 1.
In the case of “LPACVYGLAV (Influenza Virus) [SEQ ID NO: 133]”, the “# Alleles Bound” value is reported as 4.
LPFHNVHPL [SEQ ID NO: 67] was tested, and the “# Alleles Bound” value was 5.
In the case of LPRRSGAAGA [SEQ ID NO: 132], the “# Alleles Bound” value is reported as 2.
In the case of “MPAHGPAKSM (Influenza Virus) [SEQ ID NO: 258]”, the “# Alleles Bound” value is reported as 4.
In the case of “NPALRMKWM (Influenza Virus) [SEQ ID NO: 299]”, the “# Alleles Bound” value is reported as 1.
In the case of “NPRMFLAMI (Influenza Virus) [SEQ ID NO: 252]”, the “# Alleles Bound” value is reported as 1.
In the case of RPCFWVELI [SEQ ID NO: 106], the “# Alleles Bound” value is reported as 1.
“RPWVSFNQNL (Influenza Virus) [SEQ ID NO: 105]” was tested, and the “# Alleles Bound” value was 1.
With SPGMMMGMF [SEQ ID NO: 256] the “# Alleles Bound” value was 1.
“SPQLEGFSA (Influenza Virus) [SEQ ID NO: 196]” was tested, and the “# Alleles Bound” value was 2.
“SPYNSRFESV (Influenza Virus) [SEQ ID NO: 104]” was tested, and the “# Alleles Bound” value was 3.
“VPASRYLTDM (Influenza Virus) [SEQ ID NO: 147]” was tested, and the “# Alleles Bound” value was 2.
In the case of “YPKVYKTYF (Influenza Virus) [SEQ ID NO: 300]”, the “# Alleles Bound” value is reported as 2.
